Columns and labels:
[1] = test system: MCF-7 breast cancer cells; test: Cell viability (MTT) assay, MCF-7; type: cell-based; conditions: 48 h, MTT
Method: MCF-7 is a commonly used tumor cell line.
(§1) The cell lines present in this study were obtained from Procell Life Science & Technology Co. Ltd. MCF-7, HepG2 and SJSA-1 cells were cultured in DMEM medium (DMEM, Gibco) supplemented with 10% fetal bovine serum (FBS, Gibco), 1% penicillin-streptomycin (Hyclone) at 37℃ in a humid environment with 5% CO2. HK-2 cells were cultured in DMEM/F12 (1:1) medium and placed in incubators in the same environment.
(§2) Cell viability was determined by MTT assay. MCF-7, HepG2, SJSA-1 and HK-2 cells (6 × 10^3 cells /well) were seeded in 96-well plates with serum-free medium for 24 h. […] After 48 or 72 h, 10 μL MTT (5 mg/mL, Beyotime) was added and incubated at 37 °C for 4 h. Then 100 μL of lysate was added. After complete dissolution of the crystal, the absorbance was measured at 540 nm and expressed as the average percentage of absorbance between treated and control cells. The value for control cells was set at 100%. Cell survival rate was calculated as the ratio of the absorbance of the cells and negative control after minus the blank absorbance respectively.

[2] = molecular target: T1, MDM2 protein (Homo sapiens, UniProt Q00987); parameters: method as in PMID 22380771; conditions: read-out: Ki (predicted affinity with MDM2 protein); virtual screening prediction; cited from earlier work
T1 construct: purchased Protintech (so in the source)

[3] = test system: HK-2 cells; test: Cell viability (MTT) assay, HK-2 normal cells (cytotoxicity); type: cell-based; conditions: HK-2 normal cells, 48 h, MTT
Method: as §1, §2

[4] = test system: HepG2 cells; test: Cell viability (MTT) assay, HepG2; type: cell-based; conditions: 48 h, MTT
Method: (§3) To investigate the selectivity of these derivatives towards different tumor cell lines, we also selected HepG2 and osteosarcoma cell line SJSA-1 cells to evaluate the anti-proliferation activity of the derivatives. […] Except for compounds A2 and A11, the effects of other compounds on SJSA-1 were not strong.
as §1, §2

[5] = test system: osteosarcoma cell line SJSA-1; test: Cell viability (MTT) assay, SJSA-1; type: cell-based; conditions: 72 h, MTT
Method: as §3, §1, §2

[6] = test system: 95-D cells versus H1299 cells; parameters: method as in doi:10.13386/j.issn1002-0306.2015.11.030; conditions: cited from earlier work

T1 sequence (Q00987 whole entry): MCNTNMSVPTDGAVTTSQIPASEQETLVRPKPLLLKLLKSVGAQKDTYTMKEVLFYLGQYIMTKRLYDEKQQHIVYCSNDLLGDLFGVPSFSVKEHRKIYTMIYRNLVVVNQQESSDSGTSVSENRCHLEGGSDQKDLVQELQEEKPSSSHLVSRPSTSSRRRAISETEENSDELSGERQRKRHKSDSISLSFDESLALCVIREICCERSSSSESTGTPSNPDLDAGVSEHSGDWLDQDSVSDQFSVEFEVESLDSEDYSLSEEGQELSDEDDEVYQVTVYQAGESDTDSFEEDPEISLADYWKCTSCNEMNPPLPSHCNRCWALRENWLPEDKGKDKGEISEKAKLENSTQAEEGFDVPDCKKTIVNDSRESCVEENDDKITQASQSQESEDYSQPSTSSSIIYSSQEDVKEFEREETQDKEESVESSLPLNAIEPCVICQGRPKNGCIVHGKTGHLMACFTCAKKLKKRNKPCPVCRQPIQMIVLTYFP

SMILES | Viability of Cells (% of Control) ([1]; MCF-7, 25 µM) | Viability of Cells (% of Control) ([1]; MCF-7, 50 µM) | Viability of Cells (% of Control) ([1]; MCF-7, 100 µM) | Ki [2] [nM] | Viability of Cells (% of Control) ([3]; 50 µM) | Viability of Cells (% of Control) ([3]; 100 µM) | Viability of Cells (% of Control) ([4]; HepG2, 25 µM) | Viability of Cells (% of Control) ([4]; HepG2, 50 µM) | Viability of Cells (% of Control) ([5]; SJSA-1, 50 µM) | Viability of Cells (% of Control) ([5]; SJSA-1, 100 µM) | sensitivity of 95-D cells (wild-type p53) relative to H1299 cells (no p53) [6] [times]
C[C@H](CC(=O)C[C@@H](C)[C@H]1C[C@H](O)[C@@]2(C)C3=C(C(=O)C[C@]12C)[C@@]1(C)CCC(=O)C(C)(C)[C@@H]1C[C@@H]3O)C(=O)O [GAA, Ganoderic acid A, reference compound] | 109.9 ± 2.1 % of Control | 86.2 ± 5.2 % of Control | 83.6 ± 9.4 % of Control | 147 | 117.8 ± 6.3 % of Control | 104.9 ± 7.6 % of Control | 83.0 ± 1.5 % of Control | 84.0 ± 0.1 % of Control | 73.5 ± 1.1 % of Control | 74.0 ± 4.0 % of Control | 
CC(=O)O[C@@H](C/C=C(\C)C(=O)O)[C@@H](C)[C@H]1C[C@H](OC(C)=O)[C@@]2(C)C3=CC[C@H]4C(C)(C)[C@H](OC(C)=O)CC[C@]4(C)C3=CC[C@]12C [ganoderic acid T] |  |  |  |  |  |  |  |  |  |  | 3.3

— article PMC10004777 (Molecules, 2023)
